Laboratory results reported in patent US4435425A, “Fluorinated diaminobutane derivatives” (Merrell Toraude et Compagnie, priority 1982, dated 1984).

Columns and labels:
GABA-T = GABA-T inhibition in mouse brain after daily i.p. injection for four consecutive days (Example 10); format: in vivo, mice (male albino CDI); conditions: 24 hours after last dose
Procedure: (§1) A group of 10 male albino CDI mice from Charles Riner, France, is given an i.p. injection of the test compound in aqueous solution daily for four consecutive days. Half of the animals are killed by decapitation 24 hours after the last dose of the test compound. The other half of the animals are observed for up to 12 days for toxicity (as indicated by weight loss and deaths). Control animals receive an injection of the vehicle only.
The brains are removed from the dead mice and are divided into two portions by sagittal section. One half is used for the measurement of GABA-T activity while the other half is used for measuring GABA content. The GABA-T activity is measured using known methods as described by M. Jung et al., J. Neurochem., 28, 717 (1977) and 29, 797 (1977). GABA content is measured by perchloric acid or trichloroacetic acid extracts using an amino acid analyzer equiped with a fluorescene detector.
(§2) When tested as described above, 1-fluoro-2,4-diaminobutane (MFDB) and 1,1-difluoro-2,4-diaminobutane (DFDB) gave the results set forth in Table I below: […]

[1] = Toxicity (weight loss and deaths) in mice after daily i.p. injection for four consecutive days, observed up to 12 days (Example 10); format: in vivo, mice (male albino CDI)
Procedure: as §1, §2

[2] = 5 mg/kg daily i.p. for 4 days, observed up to 12 days

| SMILES | GABA-T Inhibition (GABA-T; 5 mg/kg daily i.p. for 4 days) [%] | GABA-T Inhibition (GABA-T; 10 mg/kg daily i.p. for 4 days) [%] | GABA-T Inhibition (GABA-T; 25 mg/kg daily i.p. for 4 days) [%] | GABA-T Inhibition (GABA-T; 50 mg/kg daily i.p. for 4 days) [%] | Weight Loss ([1]; 5 mg/kg daily i.p. for 4 days) [%] | Morality (After treatment) [1, 2] | Weight Loss ([1]; 10 mg/kg daily i.p. for 4 days) [%] | Morality (After treatment) ([1]; 10 mg/kg daily i.p. for 4 days, observed up to 12 days) | Weight Loss ([1]; 25 mg/kg daily i.p. for 4 days) [%] | Morality (After treatment) ([1]; 25 mg/kg daily i.p. for 4 days, on day 12) | Weight Loss ([1]; 50 mg/kg daily i.p. for 4 days) [%] | Morality (After treatment) ([1]; 50 mg/kg daily i.p. for 4 days, on day 8) | GABA-T Inhibition (GABA-T; 2 mg/kg daily i.p. for 4 days) [%] | GABA-T Inhibition (GABA-T; 20 mg/kg daily i.p. for 4 days) [%] | Weight Loss ([1]; 2 mg/kg daily i.p. for 4 days) [%] | Morality (After treatment) ([1]; 2 mg/kg daily i.p. for 4 days, observed up to 12 days) | Morality (After treatment) ([1]; 10 mg/kg daily i.p. for 4 days, by day 8) | Weight Loss ([1]; 20 mg/kg daily i.p. for 4 days) [%] | Morality (After treatment) ([1]; 20 mg/kg daily i.p. for 4 days, by day 6) |
| --- | --- | --- | --- | --- | --- | --- | --- | --- | --- | --- | --- | --- | --- | --- | --- | --- | --- | --- | --- |
| NCCC(N)CF (stereo not drawn) [MFDB, 1-Fluoro-2,4-diaminobutane] | 39.7 | 49.8 | 74 | 79 | 0 | 0/5 | 0 | 0/5 | -20 | 2/5 | -35 | 3/5 | – | – | – | – | – | – | – |
| NCCC(N)C(F)F (stereo not drawn) [DFDB, 1,1-Difluoro-2,4-diaminobutane] | 71.4 | 81 | – | – | 0 | 0/5 | -25 | – | – | – | – | – | 69.5 | 96.7 | 0 | 0/5 | 2/5 | -30 | 5/5 |
